Experimental data reported in patent publication US20250360092A1, “Carotenoid-fortified Yogurt and Methods For Preparing The Same” (Maravilla, LLC, priority 2024, published 2025).

Type: physicochemical
Conditions: start of the thirty-five-day storage at 4° C.
Description: Lutein and Zeaxanthin Stability Over Shelf Life. […] The stability may be influenced by the way lutein was added to the yogurt. When lutein is introduced post-fermentation via stirring, it tends to degrade in a concentration-dependent manner. […] This phenomenon may be attributed to the consumption of oxygen in milk by Lactobacillus bulgaricus during fermentation. […] The samplings were weighted into […] falcon tubes and 4 milliliters of tetrahydrofuran containing 0.1% was added to each sampling. The mixtures were vortexed for 30 seconds and centrifuged at 3500 grams for 5 minute at 20° C. […] The three extracts were then pooled and dried in the vacuum centrifuge at less than 30° C. and the dry residue was resuspended in 10 milliliters of acetone and read in the spectrophotometer. […] Carotenoid profiling, relative purity and quantification were carried out in a HPLC 1260 Infinity Series (Agilent Technologies, Santa Clara, CA, USA), equipped with a diode array detector, quaternary pump, degasser, thermostatically-controlled column compartment, and a thermostatically-controlled autosampler. […] For carotenoid quantification in human serum, 100 microliters of a sampling were injected. […] Differences in serum carotenoid concentration at each time point were assessed by paired t-test.

| SMILES | starting concentration in the lutein-fortified yogurt sample |
| --- | --- |
| CC1=C[C@H](O)CC(C)(C)[C@H]1/C=C/C(C)=C/C=C/C(C)=C/C=C/C=C(C)/C=C/C=C(C)/C=C/C1=C(C)C[C@@H](O)CC1(C)C [Lutein, lutein] | 14.60±0.41 mg/100 g |
| CC1=C(/C=C/C(C)=C/C=C/C(C)=C/C=C/C=C(C)/C=C/C=C(C)/C=C/C2=C(C)C[C@@H](O)CC2(C)C)C(C)(C)C[C@H](O)C1 [Zeaxanthin, zeaxanthin] | 0.71±0.02 mg/100 g |
